# In patent US7875604B2, “Compounds that inhibit HIV particle formation” (University of Virginia Patent Foundation, priority 2004, dated 2011):
# Read-outs that look alike come from different tables or passages of the source.
# How the values were obtained:
# [1] = tested on: U1 cells latently infected with HIV-1; assay: U1 latency activation assay (TNF-α induced, supernatant reverse transcriptase); format: cell-based; details: for TI (TC50/IC50): Table 6
# Method: U1 cells were obtained from the AIDS Research and Reference Reagent Program and maintained under standard culture conditions in RPMI 1640 supplemented with 10% fetal bovine serum (heat inactivated), 2 mM L-glutamine, 100 U/mL penicillin and 100 μg/mL streptomycin. U1 cells are derived from the histocytic leukemia cell line U937, and contain an integrated copy of a cytokine and/or phorbol inducible provirus (HIV-1IIIB). Cultures were maintained in such a way as to ensure exponential growth of the populations. Addition of TNF-α to the cell culture induces HIV-1, so that inhibition of virus production indicates an inhibition of a post-integration function of the HIV-1 life cycle. This is where an inhibitor of Rev function would be expected to act. […]
# At the time of the assay, cells were collected by centrifugation and counted by hemacytometer. If cell viability by Trypan Blue dye exclusion was less than 70% the assay was terminated. The cells were adjusted to 5×10^4 cells/mL and 100 μL placed in 96 well plates with 100 μL media containing a final concentration of 5 ng/mL TNF-α and the test compound. Cultures were incubated for 3 days and supernatants harvested. Compound toxicity was determined by MTS dye reduction. Virus expression was measured by supernatant reverse transcriptase activity.
# Reverse transcriptase was assayed to measure virus particle release as described above for the PBMC assay.
# Compounds were tested in the U1 latency assay using the maximum high-test concentration possible based on the supplied stocks which are listed in table 3. Compounds were tested using the maximum high-test concentration possible based on the supplied stocks. Compounds were prepared at a 2× high-test concentration by combining drug stock with tissue culture media at a ratio of 5 μL of drug to 995 μL of media. This 2× high-test sample was subsequently serially diluted in tissue culture media using 1/2 log dilutions. This series of 2× concentrated drug was subsequently diluted 1:1 by combining with an equal volume of cells in media in the 96-well plates used for the assay. Temacrazine a known inhibitor of HIV transcription was used as a control compound that is active in the post-integration part of the HIV life cycle.
# (§1) Compounds were tested using the maximum high-test concentration possible based on the supplied stocks. Compounds were prepared at a 2× high-test concentration by combining drug stock with tissue culture media at a ratio of 5 μL of drug to 995 μL of media. This 2× high-test (HT) sample was subsequently serially diluted in tissue culture media using 1/2 log dilutions. This series of 2× concentrated drug was subsequently diluted 1:1 by combining with an equal volume of cells in media in the 96-well plates used for the assay.
# HIV-1 Rev = target: T1, HIV-1 Rev (Human immunodeficiency virus type 1 group M subtype B, UniProt P04618); assay: cell-based; details: for TI (TC50/IC50): Rev assay
# T1 construct: expressed in transfected cells
# Method: The eight compounds listed in Table 1 were also tested in an assay that measured HIV-1 Rev function. […] The reporter used for these assays is the Renilla Luciferase protein, which is an enzyme that produces detectable light when mixed with certain chemicals. For this assay, a cell line has been developed in which the production of the reporter by the cells requires the function of HIV-1 Rev. Therefore, if a drug candidate inhibits the function of Rev, it decreases the amount of the reporter produced by the cells. By using Renilla Luciferase as the reporter, the inhibition of Rev is easily detected as a decrease in the amount of light produced by the cells when mixed with the appropriate chemicals.
# as §1, with “tested in the Rev assay” for “tested”, “stocks as shown in Table 3.” for “stocks.”, “high-test” for “high-test (HT)”
# MT4 cells = assay: MTS-based toxicity assay in MT-4 T cell line; details: Table 1, read-out: TC50 (the source's name)
# Method: The dose response assay was performed as follows
# MTS-based toxicity assays were performed in parallel to the 3 and 6 point dose response assays.
# The six point dose assay in 5BD.1 cells was used to calculate an IC50 for the compounds and data from the MT-4 toxicity assay allowed a TC50 to be calculated.
# [2] = Human immunodeficiency virus 1, 72 h, U1 cell assay, Table 6, 5 ng/mL TNF-α, 3 days, RT activity
# [3] = 50% inhibition of Renilla Luciferase, 24 hours, HeLa reporter line, read-out: IC50
# T1 sequence (P04618 whole entry, looked up): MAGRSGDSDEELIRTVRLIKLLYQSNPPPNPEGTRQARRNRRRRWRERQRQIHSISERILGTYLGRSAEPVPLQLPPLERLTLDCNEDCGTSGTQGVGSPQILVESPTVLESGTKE
Compound,"IC50 [1, 2]",TI (TC50/IC50) ([1]; U1 cell assay),IC50 (HIV-1 Rev),TI (TC50/IC50) (HIV-1 Rev),"IC50 ([1]; Human immunodeficiency virus 1, U1 cell assay, analogs, Table 8)",CC50 (MT4 cells),IC50 (HIV-1 Rev; [3]),"IC50 ([1]; U1 cell assay, Table 6, 5 ng/mL TNF-α, 3 days, RT activity)"
"Fc1ccc(Nc2ncnc3ccccc23)cc1Cl [Compound 109020, N-(3-chloro-4-fluorophenyl)-N-(4-quinazolinyl)amine]",0.27 µM,>151,8.98 µM,>4.54,,,,
"COc1ccc2cc3c(N)n[nH]c3nc2c1 [Compound 89246, 7-methoxy-1H-pyrazolo[3,4-b]quinolin-3-ylamine]",0.24 µM,102,,17.52,< 0.172 µM,20 µM,0.48 µM,
"CS(=O)(=O)c1ncc(-c2ccc(Br)cc2)cn1 [Compound 107129, -(4-bromophenyl)-2-(methylsulfonyl)pyrimidine]",> 53 µM,,,4.13,,10 µM,7.48 µM,
"2-chloro-N-(4-methylphenyl)-4-(trifluoromethyl)-1,3-thazole-5-carboxamide [Compound 91161]",,1.35,,>4.06,,18 µM,9.73 µM,16.5 µM
"COc1ccc2nc(C(F)(F)F)c(C#N)c(N)c2c1 [Compound 104366, 4-amino-6-methoxy-2-(trifluoromethyl)-3-quinolinecarbonitrile]",< 0.25 µM,>49.6,,7.68,,28 µM,2.24 µM,
"COc1cccc(NC(=O)c2cc(Cl)nnc2Cl)c1 [Compound 107740, 3,6-dichloro-N-(3-methoxyphenyl)-4-pyridazinecarboxamide]",1.1 µM,>26.6,,2.31,,50 µM,8 µM,
"CCc1c(C)nc2sc(C(N)=O)c(N)c2c1C [Compound 103833, 3-amino-5-ethyl-4,6-dimethylthieno[2,3-b]pyridine-2-carboxamide]",0.4 µM,>94,1.07 µM,,,32 µM,,
"CCc1c(C(=O)Nc2ccccc2)c(C)nc2sc(C(N)=O)c(N)c12 [Compound 75168, 3-amino-4-ethyl-6-methyl-N˜5˜-phenylthieno[2,3-b]pyridine-2,5-dicarboxamide]",,,,3.27,,> 100 µM,2.42 µM,
